Paper PMC9145196, “The Antileukemic and Anti-Prostatic Effect of Aeroplysinin-1 Is Mediated through ROS-Induced Apoptosis via NOX Activation and Inhibition of HIF-1a Activity” (Life, 2022)

Experiments:
topo IIα = target: T1, topo IIα (Homo sapiens, UniProt P11388); test: cell-free topo II relaxation assay of supercoiled pHOT1 plasmid DNA; assay type: biochemical
T1 construct: gene TOP2A

Hsp90 = target: T2, Hsp90 (Homo sapiens, UniProt P07900); test: protein thermal shift assay (Sypro Orange), Tm increase at […] Apl-1; assay type: binding
T2 construct: gene HSP90AA1; HSP90 recombinant protein

T1 sequence (P11388 whole entry): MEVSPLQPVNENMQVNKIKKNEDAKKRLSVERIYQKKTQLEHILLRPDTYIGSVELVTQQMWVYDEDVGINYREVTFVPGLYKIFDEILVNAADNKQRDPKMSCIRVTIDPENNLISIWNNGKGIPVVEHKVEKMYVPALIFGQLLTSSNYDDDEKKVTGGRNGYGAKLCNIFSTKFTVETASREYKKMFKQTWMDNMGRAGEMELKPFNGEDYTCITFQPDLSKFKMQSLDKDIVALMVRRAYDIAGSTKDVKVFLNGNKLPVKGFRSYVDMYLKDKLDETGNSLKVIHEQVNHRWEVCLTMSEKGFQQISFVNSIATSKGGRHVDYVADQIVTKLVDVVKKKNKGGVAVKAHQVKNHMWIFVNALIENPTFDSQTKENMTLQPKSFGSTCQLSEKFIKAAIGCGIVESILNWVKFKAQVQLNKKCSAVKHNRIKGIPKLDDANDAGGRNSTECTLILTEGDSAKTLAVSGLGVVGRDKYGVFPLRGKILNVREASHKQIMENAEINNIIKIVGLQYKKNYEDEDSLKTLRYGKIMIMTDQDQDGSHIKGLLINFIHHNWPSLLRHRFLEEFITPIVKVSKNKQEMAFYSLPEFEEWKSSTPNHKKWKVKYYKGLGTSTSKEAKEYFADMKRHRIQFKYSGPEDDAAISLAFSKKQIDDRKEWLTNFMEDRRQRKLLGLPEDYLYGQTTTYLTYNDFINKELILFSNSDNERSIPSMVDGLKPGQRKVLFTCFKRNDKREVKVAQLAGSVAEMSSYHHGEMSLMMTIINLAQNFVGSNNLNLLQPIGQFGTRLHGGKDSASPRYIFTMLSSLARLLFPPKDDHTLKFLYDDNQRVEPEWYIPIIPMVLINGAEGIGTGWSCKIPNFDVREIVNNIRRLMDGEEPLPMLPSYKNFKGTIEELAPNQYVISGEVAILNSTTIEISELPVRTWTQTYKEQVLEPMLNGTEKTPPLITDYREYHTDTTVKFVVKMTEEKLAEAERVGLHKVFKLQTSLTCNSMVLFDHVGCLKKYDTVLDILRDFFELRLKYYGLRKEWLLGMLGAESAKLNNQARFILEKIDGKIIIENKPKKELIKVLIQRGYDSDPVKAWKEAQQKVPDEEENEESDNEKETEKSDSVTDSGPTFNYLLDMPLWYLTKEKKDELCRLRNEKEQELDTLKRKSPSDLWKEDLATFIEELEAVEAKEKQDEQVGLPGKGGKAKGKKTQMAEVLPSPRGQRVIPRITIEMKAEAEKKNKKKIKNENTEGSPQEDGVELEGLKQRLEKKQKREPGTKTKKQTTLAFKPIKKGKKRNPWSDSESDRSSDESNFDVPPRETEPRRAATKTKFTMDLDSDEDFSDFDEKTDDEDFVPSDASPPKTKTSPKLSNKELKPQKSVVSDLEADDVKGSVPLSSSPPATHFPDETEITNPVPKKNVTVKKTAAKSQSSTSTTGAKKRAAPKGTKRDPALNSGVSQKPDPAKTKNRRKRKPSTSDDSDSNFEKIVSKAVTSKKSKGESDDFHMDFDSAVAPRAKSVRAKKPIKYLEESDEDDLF

COC1=C(Br)[C@H](O)[C@](O)(CC#N)C=C1Br [Apl-1, aeroplysinin-1]
IC50 (topo IIα): 1370 nM | ΔTm at 2950 µM (Hsp90): 46.4 ± 7.4 °C
